Reference: PMC11576395 (iScience, 2024)
Where two headings read alike, the source gives them in different places.

What was measured:
Experiment in all cases: thioflavin T aggregation assay of recombinant protein, […] compound
Assay type in all cases: biochemical
Details in all cases: read-out: % inhibition at 50 μM
[1] = target: T1, α-synuclein (Homo sapiens, UniProt P37840)
[2] = target: T1, α-synuclein; remark: listed apart in the source
[3] = target: T2, AIMP2 (aminoacyl-tRNA synthetase interacting multifunctional protein-2) (Homo sapiens, UniProt Q13155)
T2 sequence (Q13155 1-320): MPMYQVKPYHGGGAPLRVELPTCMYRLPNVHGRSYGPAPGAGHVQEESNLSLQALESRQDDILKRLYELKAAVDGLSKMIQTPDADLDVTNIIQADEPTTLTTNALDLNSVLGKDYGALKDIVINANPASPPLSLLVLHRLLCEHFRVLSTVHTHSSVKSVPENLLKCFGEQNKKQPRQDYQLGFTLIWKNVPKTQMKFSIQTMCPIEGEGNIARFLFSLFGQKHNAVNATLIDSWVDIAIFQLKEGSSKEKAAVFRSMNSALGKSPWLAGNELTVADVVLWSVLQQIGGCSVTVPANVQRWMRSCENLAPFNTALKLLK

## C[C@]12CC[C@H]3[C@@H](CCC4=CC(=O)CC[C@@H]43)[C@@H]1CC[C@@H]2O [Nandrolone]
[1]
  inhibition at 50 µM: ~39.9%

## CC(C)COc1ccc2c(c1)CC[C@@H]1[C@@H]2CC[C@]2(C)[C@H](O)CC[C@@H]12 [SG13-136, (8R,9S,13S,14S,17R)-3-isobutoxy-13-methyl-7,8,9,11,12,13,14,15,16,17-decahydro-6H-cyclopenta[a]phenanthren-17-ol]
[2]
  inhibition at 50 µM: 36.7%
[3]
  inhibition at 50 µM: 56.2%
